In patent US7060698B2, “Benzoxazepinone derivatives” (Hoffmann-La Roche Inc., priority 2003, dated 2006):

What follows are compounds tested against γ-secretase (Homo sapiens, UniProt P49768) (assay: in vitro assay of γ-secretase activity (HEK293 membrane fraction, recombinant APP substrate, Abeta ELISA)). Settings: statement in the synthesis example on the separated diastereomers; assay not named.
Assay type: biochemical
Excerpt: The activity of test compounds can be evaluated in assays which measure the proteolytic cleavage of suitable substrates by γ-secretase activity. These can be cellular assays where e.g., a substrate of the γ-secretase is fused in its cytoplasmic domain to a transcription factor. Cells are transfected with this fusion gene and a reporter gene, e.g., firefly luciferase, which expression is enhanced by the transcription factor. Cleavage of the fused substrate by γ-secretase will lead to expression of the reporter gene which can be monitored in appropriate assays. The γ-secretase activity can also be determined in cell-free in vitro assays where e.g., a cell lysate containing the γ-secretase complex is incubated with a suitable APP-derived substrate which is cleaved to the Abeta peptides. The amount of produced peptides can be determined with specific ELISA assays. Cell lines of neuronal origin secrete Abeta peptides which can be measured with the specific ELISA assay. Treatment with compounds which inhibit γ-secretase leads to a reduction of secreted Abeta thus providing a measure of inhibition. The in vitro assay of γ-secretase activity uses a HEK293 membrane fraction as a source of γ-secretase and a recombinant APP substrate. Latter consist of the C-terminal 100 amino acids of human APP fused to a 6× Histidin tail for purification which is expressed in E. coli in a regulatable expression vector, e.g. pEt15. This recombinant protein corresponds to the truncated APP fragment which results after […] of the extracellular domain and which constitutes the γ-secretase substrate. The assay principle is described in Li Y M et al, PNAS 97(11), 6138–6143 (2000). Hek293 cells are mechanically disrupted and the microsomal fraction is isolated by differential centrifugation. The membranes are solubilized in detergent (0.25% CHAPSO) and incubated with the APP substrate.

Structure (SMILES)	inhibitory activity of the separated diastereomers
CCC1Oc2ccc(Cl)cc2C(C(=O)NC2CCCCC2)N(Cc2ccccc2Cl)C1=O (stereo not drawn) [Example 7, 7-Chloro-4-(2-chloro-benzyl)-2-ethyl-3-oxo-2,3,4,5-tetrahydro-benzo[f][1,4]oxazepine-5-carboxylic acid cyclohexylamide]	both inhibitorily active
CCC1Oc2ccc(Cl)cc2C(C(=O)NC2CCCCC2)N(Cc2cccc(C(F)(F)F)c2)C1=O (stereo not drawn) [Example 11, 7-Chloro-2-ethyl-3-oxo-4-(3-trifluoromethyl-benzyl)-2,3,4,5-tetrahydro-benzo[f][1,4]oxazepine-5-carboxylic acid cyclohexylamide]	both inhibitorially active
CCC1Oc2ccc(Cl)cc2C(C(=O)NC(C)(C)C)N(Cc2c(F)cccc2F)C1=O (stereo not drawn) [Example 12, 7-Chloro-4-(2,6-difluoro-benzyl)-2-ethyl-3-oxo-2,3,4,5-tetrahydro-benzo[f][1,4]oxazepine-5-carboxylic acid tert-butylamide]	both inhibitorially active
CCC1Oc2ccc(Cl)cc2C(C(=O)NC(C)(C)C)N(Cc2ccccc2Cl)C1=O (stereo not drawn) [Example 14, 7-Chloro-4-(2-chloro-benzyl)-2-ethyl-3-oxo-2,3,4,5-tetrahydro-benzo[f][1,4]oxazepine-5-carboxylic acid tert-butylamide]	both inhibitorily active

Further lines, results first:

inhibitory activity of the separated diastereomers	Structure (SMILES)
both inhibitorily active	CCC1Oc2ccc(Cl)cc2C(C(=O)NC2CCCCC2)N(C2CCCCC2)C1=O (stereo not drawn) [Example 6, 7-Chloro-4-cyclohexyl-2-ethyl-3-oxo-2,3,4,5-tetrahydro-benzo[f][1,4]oxazepine-5-carboxylic acid cyclohexylamide]
both inhibitorily active	CCC1Oc2ccc(Cl)cc2C(C(=O)NC2CCCCC2)N(C2CCCC2)C1=O (stereo not drawn) [Example 9, 7-Chloro-4-cyclopentyl-2-ethyl-3-oxo-2,3,4,5-tetrahydro-benzo[f][1,4]oxazepine-5-carboxylic acid cyclohexylamide]
both inhibitorily active	CCC1Oc2ccc(Cl)cc2C(C(=O)NC2CCCCC2)N(C2CCOCC2)C1=O (stereo not drawn) [Example 10, 7-Chloro-2-ethyl-3-oxo-4-(tetrahydro-pyran-4-yl)-2,3,4,5-tetrahydro-benzo[f][1,4]oxazepine-5-carboxylic acid cyclohexylamide]
both inhibitorily active	CCC1Oc2ccc(Cl)cc2C(C(=O)NC(C)(C)C)N(C2CCCCC2)C1=O (stereo not drawn) [Example 13, 7-Chloro-4-cyclohexyl-2-ethyl-3-oxo-2,3,4,5-tetrahydro-benzo[f][1,4]oxazepine-5-carboxylic acid tert-butylamide]
both inhibitorily active	CCC1Oc2ccc(Cl)cc2C(C(=O)NC(C)(C)C)N(C2CCCC2)C1=O (stereo not drawn) [Example 16, 7-Chloro-4-cyclopentyl-2-ethyl-3-oxo-2,3,4,5-tetrahydro-benzo[f][1,4]oxazepine-5-carboxylic acid tert-butylamide]
